Legend:
Assay type in all cases: functional
HeLa = assay: Growth inhibition of human HeLa cells after 48 hrs by SRB assay
[1] = Growth inhibition of human MiaPaCa cells after 48 hrs by SRB assay; details: MIA PaCa-2, 48 h
MDA-MB-231 = assay: Growth inhibition of human MDA-MB-231 cells after 48 hrs by SRB assay; details: MDA-MB-231, 48 h
[2] = Growth inhibition of human IMR32 cells after 48 hrs by SRB assay; details: IMR-32, 48 h

SMILES	GI50 (HeLa) [µM]	GI50 (MDA-MB-231) [µM]	GI50 [1] [µM]	GI50 [2] [µM]
COc1cccc(/C=N\NC(=O)C2=C(Cl)c3ccccc3CCC2)c1	15.6	0.3	< 0.01	< 0.01
COc1ccc(/C=N\NC(=O)C2=C(Cl)c3ccccc3CCC2)c(OC)c1	38.5	0.29	2.7	14.9
COc1cc(/C=N\NC(=O)C2=C(Cl)c3ccccc3CCC2)cc(OC)c1OC	8.2	< 0.01	1.4	< 0.01
O=C(N/N=C\C1=C(Cl)c2ccccc2CCC1)C1=C(Cl)c2ccccc2CCC1	1	3	1.6	2.2
Cc1cc2c(cc1C)C(Cl)=C(/C=N\NC(=O)C1=C(Cl)c3cc(C)c(C)cc3CCC1)CCC2	> 100	78.2	6	59.9
O=C(N/N=C/C1=C(Cl)c2ccccc2CCC1)c1ccccc1	> 100	11.1	1	16.1
Cc1ccc(C(=O)N/N=C/C2=C(Cl)c3ccccc3CCC2)cc1	0.3	0.71	10	0.3
COc1cccc(C(=O)N/N=C/C2=C(Cl)c3ccccc3CCC2)c1C	9.2	0.29	0.7	26.5
COc1cc(C(=O)N/N=C/C2=C(Cl)c3ccccc3CCC2)cc(OC)c1OC	0.77	30	69.3	75.6
O=C(N/N=C/C1=C(Cl)c2ccccc2CCC1)c1cccc(Cl)c1	19.2	16.3	78.4	27.3
Nc1ccccc1C(=O)N/N=C/C1=C(Cl)c2ccccc2CCC1	> 100	5	65.1	51
O=C(N/N=C/C1=C(Cl)c2ccccc2CCC1)c1ccc([N+](=O)[O-])cc1	> 100	3.8	2.3	26
COc1cc(C(=O)N/N=C/C2=C(Cl)c3ccccc3CCC2)c([N+](=O)[O-])cc1OC	1.1	> 100	10.9	2.7
O=C(N/N=C/C1=C(Cl)c2ccccc2CCC1)c1cccnc1	7.5	91.7	11.7	0.15
O=C(N/N=C/C1=C(Cl)c2ccccc2CCC1)c1cccc(I)c1	6.3	55.2	1.6	7.6
O=C(N/N=C/C1=C(Cl)c2ccccc2CCC1)c1cccc(C(F)(F)F)c1	16.3	94.3	5.8	2
O=C(N/N=C/C1=C(Cl)c2ccccc2CCC1)c1cccc2ccccc12	4.7	12.1	13.6	9.2
COc1cc(C(=O)N/N=C/C2=C(Cl)c3cc(C)c(C)cc3CCC2)cc(OC)c1OC	0.76	0.46	2.3	20.9
COc1cc(C(=O)N/N=C/C2=C(Cl)c3cc(C)c(C)cc3CCC2)c([N+](=O)[O-])cc1OC	2	0.22	1.6	13.8
COc1cccc2c1C(=O)c1c(O)c3c(c(O)c1C2=O)C[C@@](O)(C(=O)CO)C[C@@H]3O[C@H]1C[C@H](N)[C@H](O)[C@H](C)O1 [DOXORUBICIN]	0.073	0.085	0.097	0.023
CC(=O)O[C@H]1C(=O)[C@@]2(C)[C@H]([C@H](OC(=O)c3ccccc3)[C@]3(O)C[C@H](OC(=O)[C@H](O)[C@@H](NC(=O)c4ccccc4)c4ccccc4)C(C)=C1C3(C)C)[C@]1(OC(C)=O)CO[C@@H]1C[C@@H]2O [PACLITAXEL]	0.025	0.091	0.056	0.075

The next lines start with results.

GI50 (HeLa) [µM]	GI50 (MDA-MB-231) [µM]	SMILES	GI50 [1] [µM]	GI50 [2] [µM]
1	0.71	Cc1cc2c(cc1C)C(Cl)=C(/C=N/NC(=O)c1cccc3ccccc13)CCC2	4.6	3.9
2.3	0.26	Cc1ccc(/C=N\NC(=O)C2=C(Cl)c3ccccc3CCC2)cc1	< 0.01	0.14
2.3	0.26	O=C(N/N=C\c1ccc(Cl)cc1)C1=C(Cl)c2ccccc2CCC1	< 0.01	0.14
1.3	0.41	O=C(N/N=C\c1ccc(F)cc1)C1=C(Cl)c2ccccc2CCC1	< 0.01	0.27
4.5	3.1	Cc1cc2c(cc1C)C(Cl)=C(/C=N\NC(=O)C1=C(Cl)c3ccccc3CCC1)CCC2	0.21	0.67
21	1.2	COc1cc(/C=N\NC(=O)C2=C(Cl)c3cc(C)c(C)cc3CCC2)cc(OC)c1OC	5.8	4.1
1.6	0.41	Cc1cc2c(cc1C)C(Cl)=C(C(=O)N/N=C\c1ccc(Cl)cc1)CCC2	0.44	18.3
2.2	0.84	Cc1cc2c(cc1C)C(Cl)=C(C(=O)N/N=C\c1ccc(F)cc1)CCC2	0.36	3.5
> 100	7.7	Cc1cc2c(cc1C)C(Cl)=C(C(=O)N/N=C\C1=C(Cl)c3ccccc3CCC1)CCC2	6	2.4
> 100	2.5	Cc1cc2c(cc1C)C(Cl)=C(/C=N/NC(=O)c1ccccc1)CCC2	> 100	1.8
> 100	32.9	Cc1ccc(C(=O)N/N=C/C2=C(Cl)c3cc(C)c(C)cc3CCC2)cc1	28.8	0.1
0.3	10	COc1cccc(C(=O)N/N=C/C2=C(Cl)c3cc(C)c(C)cc3CCC2)c1C	2	0.17
0.77	1.93	Cc1cc2c(cc1C)C(Cl)=C(/C=N/NC(=O)c1cccc(Cl)c1)CCC2	33.6	> 100
> 100	3.7	Cc1cc2c(cc1C)C(Cl)=C(/C=N/NC(=O)c1ccccc1N)CCC2	0.81	36.3
0.65	5.4	Cc1cc2c(cc1C)C(Cl)=C(/C=N/NC(=O)c1cccnc1)CCC2	1.6	8.4
> 100	1.2	Cc1cc2c(cc1C)C(Cl)=C(/C=N/NC(=O)c1cccc(I)c1)CCC2	4.3	1.9
6.8	< 0.01	Cc1cc2c(cc1C)C(Cl)=C(/C=N/NC(=O)c1cccc(C(F)(F)F)c1)CCC2	12.2	7.8
